Consider one substance from US12409189B2, “STAUFEN1 agents and associated methods” (University of Utah Research Foundation, priority 2016, dated 2025).

Holding throughout (type): cell-based, human
In one data set the test system is Staufen1. The data set is described as follows: Western blot of Staufen1 in SH-SY5Y and ATXN2-Q22/58 knock-in cells. The following applies: ATXN2-Q22/58 KI cells, RNAi. The protocol: (§1) SH-SY5Y cells were cultured in standard DMEM with 10% FBS and 1X penicillin/streptomycin in 5% CO2. Transfection of STAU1 siRNA or STAU1 ASO was accomplished using Lipofectamine transfection reagent using standard conditions. Cells were harvested 3-5 days post transfection.
(§2) Protein extracts were prepared by suspending cell pellets in SDS-PAGE sample buffer (Laemmli sample buffer) followed by boiling for 5 min. Equal amount of the extracts were subjected to Western blot analysis to determine the steady-state levels of proteins using the indicated antibodies. Protein extracts were resolved by SDS-PAGE and transferred to Hybond P membranes (Amersham Bioscience Inc., USA). After blocking with 5% skim milk in 0.1% Tween 20/PBS, the membranes were incubated with primary antibodies in 5% skim milk in 0.1% Tween 20/PBS for 2 hrs at room temperature or overnight at 4° C. After several washes with 0.1% Tween 20/PBS, the membranes were incubated with the corresponding secondary antibodies conjugated with HRP in 5% skim milk in 0.1% Tween 20/PBS for 2 hrs at room temperature. Following three additional washes with 0.1% Tween 20/PBS, signals were detected by using the Immobilon Western Chemiluminescent HRP Substrate (Millipore Inc., USA; cat #WBKLSO100) according to the manufacturer's protocol. The antibodies used included ATXN2 mAb [(1:3000), BD Biosciences Inc.; cat #611378], rabbit anti-Staufen antibody (Novus biologicals Inc., NBP1-33202), SQSTM1/p62 antibody (Cell signaling, #5114), LC3B Antibody (Novus biologicals Inc., NB100-2220), mTOR antibody (Cell signaling, #2972), Phospho-mTOR (Ser2448) antibody (Cell signaling #2971), β-Actin mAb conjugated with HRP [(1:10,000), Sigma Inc.; cat #A3858]. Secondary antibodies were horse anti-mouse IgG-HRP antibody (Vector laboratories, PI-2000), and goat anti-rabbit IgG-HRP antibody (Vector laboratories, PI-1000).
(§3) For over-expression of recombinant proteins, SH-SY5Y cells were seeded on 100 mm or 6 well dishes and incubated overnight. The cells were then transfected with plasmid DNAs and harvested 48 hrs post-transfection and processed as two aliquots for protein and RNA analyses. For siRNA experiments, cells were transfected with siRNAs using lipofectamine 2000, and lymphoblastoid B cells (1×10^6) were electroporated with siRNAs using the Neon transfection system (Invitrogen Inc., USA) according to the manufacturer's protocol and seeded on 6 well plates.
(§4) Preparation of protein lysates and western blot analyses. […] Signals were detected by using the Immobilon Western Chemiluminescent HRP Substrate (Millipore Inc., USA; cat #WBKLSO100) according to the manufacturer's protocol. The intensity of proteins was determined by using the ImageJ software analyses system and the relative protein abundances were expressed as ratios to β-actin.

Data set [1] relates to autophagic pathway proteins (mTOR, P-mTOR, p62, LC3-II). In words: Western blot of autophagic pathway proteins in SH-SY5Y and ATXN2-Q22/58 knock-in cells. The protocol:
as §1
as §2, with “The antibodies used included ATXN2 mAb [(1:3000), BD Biosciences Inc.; cat #611378], rabbit anti-Staufen antibody (Novus biologicals Inc., NBP1-33202), SQSTM1/p62 antibody (Cell signaling, #5114), LC3B Antibody (Novus biologicals Inc., NB100-2220), mTOR antibody (Cell signaling, #2972), Phospho-mTOR (Ser2448) antibody (Cell signaling #2971), β-Actin mAb conjugated with HRP [(1:10,000), Sigma Inc.; cat #A3858].” left out
as §3
Preparation of protein lysates and western blot analyses. Cellular extracts were prepared by a single-step lysis method. […] Equal amounts of the extracts were used for western blot analyses. […] Only supernatants were used for western blotting. Protein extracts were resolved by SDS-PAGE and transferred to Hybond P membranes (Amersham Bioscience Inc., USA). After blocking with 5% skim milk in 0.1% Tween 20/PBS, the membranes were processed for immunostaining using corresponding primary and secondary antibodies. Signals were detected by using the Immobilon Western Chemiluminescent HRP Substrate (Millipore Inc., USA; cat #WBKLSO100) according to the manufacturer's protocol. The intensity of proteins was determined by using the ImageJ software analyses system and the relative protein abundances were expressed as ratios to β-actin.
Background: A western blot detects proteins with antibodies after separation by electrophoresis.

The subject of a further data set is mTOR and phospho-mTOR. In words: Western blot of mTOR and phospho-mTOR after mTOR RNAi. Particulars: SH-SY5Y and ATXN2-Q22/58 KI cells, 4 days post-transfection.
Excerpt: siRNAs. The siRNAs used in this study were: All Star Negative Control siRNA (Qiagen Inc., USA; Cat #1027280), human siATXN2 [Hs_ATXN2_2 (Qiagen Inc., USA; Cat #SI00308196)], human siSTAU1: 5′-CCUAUAACUACAACAUGAGdTdT-3′ (SEQ ID NO: 3), and simTOR: 5′-GAGCCUUGUUGAUCCUUAA-3′ (SEQ ID NO: 4). Staufen1 and mTOR siRNA oligonucleotides were synthesized by Invitrogen Inc., USA. The oligonucleotides were deprotected and the complementary strands were annealed.
as §3, §4

Regarding “5′-GAGCCUUGUUGAUCCUUAA-3′ (listed as RNA, chemistry not given here; listed as Homo sapiens) [simTOR, mTOR siRNA synthesized by Invitrogen]”, in the data set on Staufen1, the Staufen1 abundance entry was “reduced Staufen1”. For the same substance, the autophagic pathway proteins result in data set [1] (ATXN2-Q22/58 knock-in cells, RNAi transfection) is on record as “improves autophagy marker proteins”. Also, the “Staufen1 and autophagic pathway protein component levels in control cells” value in data set [1] (control SH-SY5Y cells, mTOR RNAi, 4 days post-transfection) is recorded as “without affecting those levels”. Moreover, in the data set with mTOR and phospho-mTOR, the “mTOR and phospho-mTOR levels” value is “depletion”.
